PubChem BioAssay (NCI)
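Compound exposure: 48 hours, 5 concentrations, 96-well plates. TGI denotes the concentration required for complete inhibition of growth.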

What was measured:
Test in all cases: NCI-60 cell line screen, 48 h
U251 CNS = test system: U251 CNS
HOP-92 NSCLC = test system: HOP-92 NSCLC
SNB-75 CNS = test system: SNB-75 CNS
NCI-H460 lung = test system: NCI-H460 lung
LOX IMVI melanoma = test system: LOX IMVI melanoma
OVCAR-3 ovarian = test system: OVCAR-3 ovarian
A549 NSCLC = test system: A549 NSCLC
SF-268 CNS = test system: SF-268 CNS
MOLT-4 leukemia = test system: MOLT-4 leukemia
M14 melanoma = test system: M14 melanoma
OVCAR-5 ovarian = test system: OVCAR-5 ovarian
OVCAR-8 ovarian = test system: OVCAR-8 ovarian
KM12 colon = test system: KM12 colon
NCI/ADR-RES ovarian = test system: NCI/ADR-RES ovarian
MDA-MB-231 breast = test system: MDA-MB-231 breast
NCI-H23 lung = test system: NCI-H23 lung
HCT-15 colon = test system: HCT-15 colon
HS 578T breast = test system: HS 578T breast
SK-MEL-5 melanoma = test system: SK-MEL-5 melanoma
COLO 205 colon = test system: COLO 205 colon
PC-3 prostate = test system: PC-3 prostate
CCRF-CEM leukemia = test system: CCRF-CEM leukemia
K-562 leukemia = test system: K-562 leukemia
UACC-257 melanoma = test system: UACC-257 melanoma
786-0 renal = test system: 786-0 renal
OVCAR-4 ovarian = test system: OVCAR-4 ovarian
MALME-3M melanoma = test system: MALME-3M melanoma
MCF7 breast = test system: MCF7 breast
RXF 393 renal = test system: RXF 393 renal
SNB-19 CNS = test system: SNB-19 CNS
UO-31 renal = test system: UO-31 renal
MDA-MB-435 = test system: MDA-MB-435
NCI-H522 lung = test system: NCI-H522 lung
BT-549 breast = test system: BT-549 breast
EKVX NSCLC = test system: EKVX NSCLC
UACC-62 melanoma = test system: UACC-62 melanoma
HOP-62 NSCLC = test system: HOP-62 NSCLC
T-47D breast = test system: T-47D breast
A498 renal = test system: A498 renal
SK-MEL-28 melanoma = test system: SK-MEL-28 melanoma
SF-295 CNS = test system: SF-295 CNS
HCT-116 colon = test system: HCT-116 colon
SF-539 CNS = test system: SF-539 CNS
HT29 colon = test system: HT29 colon
MDA-N = test system: MDA-N
NCI-H226 lung = test system: NCI-H226 lung
HL-60(TB) leukemia = test system: HL-60(TB) leukemia
SK-OV-3 ovarian = test system: SK-OV-3 ovarian
ACHN renal = test system: ACHN renal
SN12C renal = test system: SN12C renal
TK-10 renal = test system: TK-10 renal
SK-MEL-2 melanoma = test system: SK-MEL-2 melanoma
DU-145 prostate = test system: DU-145 prostate
CAKI-1 renal = test system: CAKI-1 renal
SR leukemia = test system: SR leukemia
SW-620 colon = test system: SW-620 colon
RPMI-8226 leukemia = test system: RPMI-8226 leukemia
IGROV1 ovarian = test system: IGROV1 ovarian

For `COc1ccccc1N1C(=O)CS(=O)(=O)C1c1cccc(Oc2ccccc2)c1` (stereo unspecified), the TGI (U251 CNS) was 29.7 µM, the TGI (HOP-92 NSCLC) was 24.7 µM and the TGI (SNB-75 CNS) was 48.2 µM. The TGI (NCI-H460 lung) was 29.4 µM, the TGI (LOX IMVI melanoma) was 36.1 µM and the TGI (OVCAR-3 ovarian) was 41.2 µM. For the same molecule, the TGI (A549 NSCLC) was 40.5 µM, the TGI (SF-268 CNS) was 33.1 µM and the TGI (MOLT-4 leukemia) was 38.8 µM. It also gave a TGI (M14 melanoma) of 33.3 µM, a TGI (OVCAR-5 ovarian) of 59 µM and a TGI (OVCAR-8 ovarian) of 34.3 µM. For the same molecule, the TGI (KM12 colon) was 61.7 µM, the TGI (NCI/ADR-RES ovarian) was 40 µM and the TGI (MDA-MB-231 breast) was 30.7 µM. For the same molecule, the TGI (NCI-H23 lung) was 37.3 µM, the TGI (HCT-15 colon) was 36.2 µM and the TGI (HS 578T breast) was 48.2 µM. For the same molecule, the TGI (SK-MEL-5 melanoma) was 28.9 µM, the TGI (COLO 205 colon) was 34.4 µM and the TGI (PC-3 prostate) was 27.2 µM. For the same molecule, the TGI (CCRF-CEM leukemia) was greater than 100 µM, the TGI (K-562 leukemia) was 19.1 µM and the TGI (UACC-257 melanoma) was 25.6 µM. The TGI (786-0 renal) was 34.9 µM, the TGI (OVCAR-4 ovarian) was 38.6 µM and the TGI (MALME-3M melanoma) was 30 µM. It also gave a TGI (MCF7 breast) of 20.4 µM, a TGI (RXF 393 renal) of 38.8 µM and a TGI (SNB-19 CNS) of 38.7 µM. For the same molecule, the TGI (UO-31 renal) was 35.1 µM, the TGI (MDA-MB-435) was 22.2 µM and the TGI (NCI-H522 lung) was 29.3 µM. It also gave a TGI (BT-549 breast) of 31.8 µM, a TGI (EKVX NSCLC) of 42.6 µM and a TGI (UACC-62 melanoma) of 25.3 µM. The TGI (HOP-62 NSCLC) was 49.2 µM, the TGI (T-47D breast) was 48.3 µM and the TGI (A498 renal) was 34.6 µM. It also gave a TGI (SK-MEL-28 melanoma) of 36.7 µM, a TGI (SF-295 CNS) of 38.2 µM and a TGI (HCT-116 colon) of 27.3 µM. The TGI (SF-539 CNS) was 32.6 µM, the TGI (HT29 colon) was 44.1 µM and the TGI (MDA-N) was 16.5 µM. It also gave a TGI (NCI-H226 lung) of 31.8 µM, a TGI (HL-60(TB) leukemia) of 79.9 µM and a TGI (SK-OV-3 ovarian) of 73.5 µM. It also gave a TGI (ACHN renal) of 33.7 µM, a TGI (SN12C renal) of 33.1 µM and a TGI (TK-10 renal) of 33.8 µM. The TGI (SK-MEL-2 melanoma) was 27.1 µM, the TGI (DU-145 prostate) was 71.2 µM and the TGI (CAKI-1 renal) was 64.3 µM. For the same molecule, the TGI (SR leukemia) was 28.2 µM and the TGI (SW-620 colon) was 82.8 µM.

In the case of `CCCN(CCC)c1cc2c(cc1F)c(=O)c(C(=O)O)cn2-c1ccc(N2CCN(C)CC2)cn1`, the TGI (U251 CNS) is reported as greater than 100 µM, the TGI (HOP-92 NSCLC) is reported as 28.7 µM and the TGI (SNB-75 CNS) is reported as 28.3 µM. It also gave a TGI (NCI-H460 lung) of 36.5 µM, a TGI (LOX IMVI melanoma) of 9.65 µM and a TGI (RPMI-8226 leukemia) of 40.4 µM. The TGI (OVCAR-3 ovarian) was 29.7 µM, the TGI (A549 NSCLC) was 34 µM and the TGI (SF-268 CNS) was 30.7 µM. The TGI (MOLT-4 leukemia) was 43.4 µM, the TGI (M14 melanoma) was 32.1 µM and the TGI (OVCAR-5 ovarian) was 41.3 µM. The TGI (OVCAR-8 ovarian) was 27.3 µM, the TGI (KM12 colon) was 30.3 µM and the TGI (NCI/ADR-RES ovarian) was 35.9 µM. For the same molecule, the TGI (MDA-MB-231 breast) was 27.1 µM, the TGI (NCI-H23 lung) was 35 µM and the TGI (HCT-15 colon) was greater than 100 µM. For the same molecule, the TGI (HS 578T breast) was 35.1 µM, the TGI (COLO 205 colon) was 27.1 µM and the TGI (PC-3 prostate) was 39.3 µM. For the same molecule, the TGI (CCRF-CEM leukemia) was 36.7 µM, the TGI (K-562 leukemia) was 55.1 µM and the TGI (UACC-257 melanoma) was 36.4 µM. The TGI (786-0 renal) was 36.8 µM, the TGI (OVCAR-4 ovarian) was 43.3 µM and the TGI (MALME-3M melanoma) was 27.9 µM. It also gave a TGI (MCF7 breast) of 53.3 µM, a TGI (RXF 393 renal) of 33.1 µM and a TGI (SNB-19 CNS) of 31.5 µM. It also gave a TGI (UO-31 renal) of 32.2 µM, a TGI (MDA-MB-435) of 38.9 µM and a TGI (NCI-H522 lung) of 24.9 µM. For the same molecule, the TGI (BT-549 breast) was 25 µM, the TGI (EKVX NSCLC) was 34.2 µM and the TGI (UACC-62 melanoma) was 39.6 µM. For the same molecule, the TGI (HOP-62 NSCLC) was 31.4 µM, the TGI (T-47D breast) was 38.8 µM and the TGI (A498 renal) was 49.2 µM. For the same molecule, the TGI (SK-MEL-28 melanoma) was 36.5 µM, the TGI (SF-295 CNS) was 33.6 µM and the TGI (HCT-116 colon) was 28.9 µM. The TGI (SF-539 CNS) was 32.6 µM, the TGI (HT29 colon) was 30.5 µM and the TGI (MDA-N) was 40.1 µM. It also gave a TGI (NCI-H226 lung) of 31.1 µM, a TGI (HL-60(TB) leukemia) of 26.1 µM and a TGI (SK-OV-3 ovarian) of 28.5 µM. For the same molecule, the TGI (IGROV1 ovarian) was 27.6 µM, the TGI (SN12C renal) was 46 µM and the TGI (TK-10 renal) was 23.1 µM. The TGI (DU-145 prostate) was 45.3 µM, the TGI (CAKI-1 renal) was 32.5 µM and the TGI (SR leukemia) was 35.9 µM. It also gave a TGI (SW-620 colon) of 48.2 µM.
